From patent publication US6433188B1, “Fused heteroaromatic glucokinase activators” (priority 2000, dated 2002)

Row | Structure (SMILES) | melting point [°C]
1 | O=C(Nc1nc2c(s1)CCCC2)C(CC1CCCC1)c1ccc(Cl)c(Cl)c1 (stereo not drawn) [Example 1, 3-Cyclopentyl-2-(3,4-dichloro-phenyl)-N-(4,5,6,7-tetrahydro-benzothiazol-2-yl)-propionamide] | 170 to 171
2 | O=C(Nc1nc2ccccc2s1)C(CC1CCCC1)c1ccc(Cl)c(Cl)c1 (stereo not drawn) [Example 2, N-Benzothiazol-2-yl-3-cyclopentyl-2-(3,4-dichloro-phenyl)-propionamide] | 104 to 105
3 | O=C(Nc1nc2ccc(F)cc2s1)C(CC1CCCC1)c1ccc(Cl)c(Cl)c1 (stereo not drawn) [Example 4, 3-Cyclopentyl-2-(3,4-dichloro-phenyl)-N-(6-fluoro-benzothiazol-2-yl)-propionamide] | 131 to 133
4 | O=C(Nc1nc2ccccc2[nH]1)C(CC1CCCC1)c1ccc(Cl)c(Cl)c1 (stereo not drawn) [Example 8, N-(1H-Benzimidazol-2-yl)-3-cyclopentyl-2-(3,4-dichloro-phenyl)-propionamide] | 193.4 to 196.8
5 | O=C(Nc1ccc2ccccc2n1)C(CC1CCCC1)c1ccc(Cl)c(Cl)c1 (stereo not drawn) [Example 10, 3-Cyclopentyl-2-(3,4-dichloro-phenyl)-N-quinolin-2-yl-propionamide] | 172 to 173
6 | CS(=O)(=O)c1ccc(C(CC2CCCC2)C(=O)Nc2nc3ccccc3s2)cc1 (stereo not drawn) [Example 12(A), N-Benzothiazol-2-yl-3-cyclopentyl-2-(4-methanesulfonyl-phenyl)-propionamide] | 206 to 209
7 | CS(=O)(=O)c1ccc([C@@H](CC2CCCC2)C(=O)Nc2nc3ccccc3[nH]2)cc1 [Example 13, N-(1H-Benzimidazol-2-yl)-3-cyclopentyl-2(R)-(4-methanesulfonyl-phenyl)-propionamide] | 230 to 232
8 | CS(=O)(=O)c1ccc([C@@H](CC2CCCC2)C(=O)Nc2nc3ccccc3s2)cc1 [Example 14, N-Benzothiazol-2-yl-3-cyclopentyl-2(R)-(4-methanesulfonyl-phenyl)-propionamide] | 100 to 105
9 | CS(=O)(=O)c1ccc([C@@H](CC2CCCC2)C(=O)Nc2nc3ccccc3[nH]2)cc1Cl [Example 21, N-(1H-Benzimidazol-2-yl)-2(R)-(3-chloro-4-methanesulfonyl-phenyl)-3-cyclopentyl-propionamide] | > 215
10 | CS(=O)(=O)c1ccc(C(CC2CCCC2)C(=O)Nc2nc3ccccc3[nH]2)cc1Br (stereo not drawn) [Example 24(A), N-(1H-Benzimidazol-2-yl)-2-(3-bromo-4-methanesulfonyl-phenyl)-3-cyclopentyl-propionamide] | > 220
11 | CS(=O)(=O)c1ccc(C(CC2CCCC2)C(=O)Nc2ccc3ccccc3n2)cc1Br (stereo not drawn) [Example 25, 2-(3-Bromo-4-methanesulfonyl-phenyl)-3-cyclopentyl-N-quinolin-2-yl-propionamide] | 95 to 100
12 | CS(=O)(=O)c1ccc(C(CC2CCCC2)C(=O)Nc2nc3ccccc3s2)cc1C#N (stereo not drawn) [Example 26, N-Benzothiazol-2-yl-2-(3-cyano-4-methanesulfonyl-phenyl)-3-cyclopentyl-propionamide] | 115 to 118
13 | CS(=O)(=O)c1ccc(C(CC2CCCC2)C(=O)Nc2nc3ccccc3o2)cc1C#N (stereo not drawn) [Example 27, N-Benzoxazol-2-yl-2-(3-cyano-4-methanesulfonyl-phenyl)-3-cyclopentyl-propionamide] | 108 to 112
14 | CS(=O)(=O)c1ccc(C(CC2CCCC2)C(=O)Nc2nc3ccccc3[nH]2)cc1C#N (stereo not drawn) [Example 28, N-(1H-Benzimidazol-2-yl)-2-(3-cyano-4-methanesulfonyl-phenyl)-3-cyclopentyl-propionamide] | 148 to 152
15 | CS(=O)(=O)c1ccc(C(CC2CCCC2)C(=O)Nc2ccc3ccccc3n2)cc1C#N (stereo not drawn) [Example 29, 2-(3-Cyano-4-methanesulfonyl-phenyl)-3-cyclopentyl-N-quinolin-2-yl-propionamide] | 95 to 99
16 | CS(=O)(=O)c1ccc(C(CC2CCCC2)C(=O)Nc2ccc3ccccc3n2)cc1C(F)(F)F (stereo not drawn) [Example 30, 3-Cyclopentyl-2-(4-methanesulfonyl-3-trifluoromethyl-phenyl)-N-quinolin-2-yl-propionamide] | 90 to 95
17 | CS(=O)(=O)c1ccc(C(CC2CCCC2)C(=O)Nc2nc3ccccc3s2)cc1C(F)(F)F (stereo not drawn) [Example 31(A), N-Benzothiazol-2-yl-3-cyclopentyl-2-(4-methanesulfonyl-3-trifluoromethyl-phenyl)-propionamide] | 105 to 110
18 | CS(=O)(=O)c1ccc(C(CC2CCCC2)C(=O)Nc2nc3ccccc3s2)cc1[N+](=O)[O-] (stereo not drawn) [Example 32, N-Benzothiazol-2-yl-3-cyclopentyl-2-(4-methanesulfonyl-3-nitro-phenyl)-propionamide] | 108 to 113
19 | CS(=O)(=O)c1ccc(C(CC2CCCC2)C(=O)Nc2nc3ccccc3o2)cc1[N+](=O)[O-] (stereo not drawn) [Example 33, N-Benzoxazol-2-yl-3-cyclopentyl-2-(4-methanesulfonyl-3-nitro-phenyl)-propionamide] | 106 to 111
20 | CS(=O)(=O)c1ccc(C(CC2CCCC2)C(=O)Nc2nc3ccccc3[nH]2)cc1[N+](=O)[O-] (stereo not drawn) [Example 34, N-(1H-Benzimidazol-2-yl)-3-cyclopentyl-2-(4-methanesulfonyl-3-nitro-phenyl)-propionamide] | 113 to 117
21 | CS(=O)(=O)c1ccc(C(CC2CCCC2)C(=O)Nc2ccc3ccccc3n2)cc1[N+](=O)[O-] (stereo not drawn) [Example 35, 3-Cyclopentyl-2-(4-methanesulfonyl-3-nitro-phenyl)-N-quinolin-2-yl-propionamide] | 102 to 106
